# Test results published in ChEMBL document CHEMBL1671626, “In vitro profiling of ceftaroline against a collection of recent bacterial clinical isolates from across the United States” (2008).
# Legend:
# Format in all cases: functional
# Streptococcus pneumoniae [1] = assay: Antibacterial activity against penicillin-resistant Streptococcus pneumoniae assessed as susceptible isolates by CLSI M7-A7 broth microdilution method
# Klebsiella pneumoniae [2] = assay: Antibacterial activity against ceftazidime-nonsusceptible Klebsiella pneumoniae by CLSI M7-A7 broth microdilution method
# Providencia sp. [3] = assay: Antibacterial activity against ceftazidime-susceptible Providencia sp. by CLSI M7-A7 broth microdilution method
# Haemophilus influenzae = assay: Antibacterial activity against beta lactamase-positive Haemophilus influenzae by CLSI M7-A7 broth microdilution method
# Enterobacteriaceae [4] = assay: Antibacterial activity against ceftazidime-nonsusceptible Enterobacteriaceae by CLSI M7-A7 broth microdilution method
# Klebsiella pneumoniae [5] = assay: Antibacterial activity against ceftazidime-susceptible Klebsiella pneumoniae by CLSI M7-A7 broth microdilution method
# Staphylococcus aureus [6] = assay: Antibacterial activity against coagulase-negative and oxacillin-resistant Staphylococcus aureus assessed as susceptible isolates by CLSI M7-A7 broth microdilution method
# Klebsiella pneumoniae [7] = assay: Antibacterial activity against ceftazidime-susceptible Klebsiella pneumoniae assessed as susceptible isolates by CLSI M7-A7 broth microdilution method
# Klebsiella pneumoniae [8] = assay: Antibacterial activity against ceftazidime-nonsusceptible Klebsiella pneumoniae assessed as resistant isolates by CLSI M7-A7 broth microdilution method
# Enterobacter cloacae [9] = assay: Antibacterial activity against ceftazidime-nonsusceptible Enterobacter cloacae assessed as resistant isolates by CLSI M7-A7 broth microdilution method
# Serratia marcescens = assay: Antibacterial activity against ceftazidime-susceptible Serratia marcescens assessed as resistant isolates by CLSI M7-A7 broth microdilution method
# Enterococcus faecalis [10] = assay: Antibacterial activity against vancomycin-susceptible Enterococcus faecalis by CLSI M7-A7 broth microdilution method
# Streptococcus pneumoniae [11] = assay: Antibacterial activity against penicillin-resistant Streptococcus pneumoniae assessed as resistant isolates by CLSI M7-A7 broth microdilution method
# Streptococcus viridans [12] = assay: Antibacterial activity against penicillin-nonsusceptible Streptococcus viridans by CLSI M7-A7 broth microdilution method
# Acinetobacter [13] = assay: Antibacterial activity against imipenem-susceptible Acinetobacter by CLSI M7-A7 broth microdilution method
# Enterococcus faecalis [14] = assay: Antibacterial activity against vancomycin-resistant Enterococcus faecalis by CLSI M7-A7 broth microdilution method
# Streptococcus pneumoniae [15] = assay: Antibacterial activity against penicillin-resistant Streptococcus pneumoniae by CLSI M7-A7 broth microdilution method
# Enterobacter cloacae [16] = assay: Antibacterial activity against ceftazidime-susceptible Enterobacter cloacae assessed as susceptible isolates by CLSI M7-A7 broth microdilution method
# Proteus mirabilis = assay: Antibacterial activity against ceftazidime-susceptible Proteus mirabilis assessed as resistant isolates by CLSI M7-A7 broth microdilution method
# Acinetobacter [17] = assay: Antibacterial activity against imipenem-susceptible Acinetobacter assessed as susceptible isolates by CLSI M7-A7 broth microdilution method
# Enterobacter cloacae [18] = assay: Antibacterial activity against ceftazidime-nonsusceptible Enterobacter cloacae assessed as susceptible isolates by CLSI M7-A7 broth microdilution method
# Enterobacter cloacae [19] = assay: Antibacterial activity against ceftazidime-susceptible Enterobacter cloacae assessed as resistant isolates by CLSI M7-A7 broth microdilution method
# Streptococcus pneumoniae [20] = assay: Antibacterial activity against penicillin-susceptible Streptococcus pneumoniae assessed as susceptible isolates by CLSI M7-A7 broth microdilution method
# Streptococcus viridans [21] = assay: Antibacterial activity against penicillin-susceptible Streptococcus viridans by CLSI M7-A7 broth microdilution method
# Streptococcus pneumoniae [22] = assay: Antibacterial activity against penicillin-susceptible Streptococcus pneumoniae by CLSI M7-A7 broth microdilution method
# Escherichia coli [23] = assay: Antibacterial activity against ceftazidime-susceptible Escherichia coli assessed as susceptible isolates by CLSI M7-A7 broth microdilution method
# Enterobacteriaceae [24] = assay: Antibacterial activity against ceftazidime-nonsusceptible Enterobacteriaceae assessed as resistant isolates by CLSI M7-A7 broth microdilution method
# Moraxella catarrhalis [25] = assay: Antibacterial activity against beta lactamase-positive Moraxella catarrhalis by CLSI M7-A7 broth microdilution method
# Escherichia coli [26] = assay: Antibacterial activity against ceftazidime-nonsusceptible Escherichia coli assessed as susceptible isolates by CLSI M7-A7 broth microdilution method
# Providencia sp. [27] = assay: Antibacterial activity against ceftazidime-susceptible Providencia sp. assessed as resistant isolates by CLSI M7-A7 broth microdilution method
# Morganella morganii [28] = assay: Antibacterial activity against ceftazidime-susceptible Morganella morganii assessed as resistant isolates by CLSI M7-A7 broth microdilution method
# Staphylococcus aureus [29] = assay: Antibacterial activity against methicillin-susceptible Staphylococcus aureus assessed as susceptible isolates by CLSI M7-A7 broth microdilution method
# Moraxella catarrhalis [30] = assay: Antibacterial activity against beta lactamase-positive Moraxella catarrhalis assessed as susceptible isolates by CLSI M7-A7 broth microdilution method
# Streptococcus pyogenes = assay: Antibacterial activity against erythromycin-susceptible Streptococcus pyogenes by CLSI M7-A7 broth microdilution method
# Streptococcus agalactiae = assay: Antibacterial activity against erythromycin-nonsusceptible Streptococcus agalactiae by CLSI M7-A7 broth microdilution method
# Citrobacter freundii [31] = assay: Antibacterial activity against ceftazidime-susceptible Citrobacter freundii assessed as resistant isolates by CLSI M7-A7 broth microdilution method
# Staphylococcus aureus [32] = assay: Antibacterial activity against coagulase-negative and oxacillin-resistant Staphylococcus aureus assessed as resistant isolates by CLSI M7-A7 broth microdilution method
# Staphylococcus aureus [33] = assay: Antibacterial activity against methicillin-resistant Staphylococcus aureus assessed as resistant isolates by CLSI M7-A7 broth microdilution method
# Escherichia coli [34] = assay: Antibacterial activity against ceftazidime-susceptible Escherichia coli assessed as resistant isolates by CLSI M7-A7 broth microdilution method
# Acinetobacter [35] = assay: Antibacterial activity against imipenem-susceptible Acinetobacter assessed as resistant isolates by CLSI M7-A7 broth microdilution method
# Escherichia coli [36] = assay: Antibacterial activity against ceftazidime-nonsusceptible Escherichia coli assessed as resistant isolates by CLSI M7-A7 broth microdilution method
# Morganella morganii [37] = assay: Antibacterial activity against ceftazidime-susceptible Morganella morganii assessed as susceptible isolates by CLSI M7-A7 broth microdilution method
# Enterococcus faecium = assay: Antibacterial activity against vancomycin-resistant Enterococcus faecium by CLSI M7-A7 broth microdilution method
# Citrobacter freundii [38] = assay: Antibacterial activity against ceftazidime-susceptible Citrobacter freundii assessed as susceptible isolates by CLSI M7-A7 broth microdilution method
smiles,measurement,setting,value
C[C@H]1COc2c(N3CCN(C)CC3)c(F)cc3c(=O)c(C(=O)O)cn1c23.C[C@H]1COc2c(N3CCN(C)CC3)c(F)cc3c(=O)c(C(=O)O)cn1c23.O [LEVOFLOXACIN],Activity,Streptococcus pneumoniae [1],99.3%
same,MIC50,Klebsiella pneumoniae [2],8 µg/mL
same,MIC90,Klebsiella pneumoniae [2],> 16 µg/mL
same,MIC50,Providencia sp. [3],0.25 µg/mL
same,MIC90,Providencia sp. [3],> 16 µg/mL
same,MIC50,Haemophilus influenzae,0.015 µg/mL
same,MIC90,Haemophilus influenzae,0.03 µg/mL
same,MIC50,Enterobacteriaceae [4],8 µg/mL
same,MIC90,Enterobacteriaceae [4],> 16 µg/mL
same,MIC50,Klebsiella pneumoniae [5],0.06 µg/mL
same,MIC90,Klebsiella pneumoniae [5],0.25 µg/mL
same,Activity,Staphylococcus aureus [6],21.7%
same,Activity,Klebsiella pneumoniae [7],98.1%
same,Activity,Klebsiella pneumoniae [8],54.5%
same,Activity,Enterobacter cloacae [9],25.7%
same,Activity,Serratia marcescens,1.7%
same,MIC50,Enterococcus faecalis [10],1 µg/mL
same,MIC90,Enterococcus faecalis [10],> 16 µg/mL
same,Activity,Streptococcus pneumoniae [11],0.7%
same,MIC50,Streptococcus viridans [12],1 µg/mL
same,MIC90,Streptococcus viridans [12],2 µg/mL
same,MIC50,Acinetobacter [13],0.5 µg/mL
same,MIC90,Acinetobacter [13],> 16 µg/mL
same,MIC50,Enterococcus faecalis [14],> 16 µg/mL
same,MIC50,Streptococcus pneumoniae [15],0.5 µg/mL
same,MIC90,Streptococcus pneumoniae [15],1 µg/mL
same,Activity,Enterobacter cloacae [16],94%
same,Activity,Proteus mirabilis,20.7%
same,Activity,Acinetobacter [17],51.1%
same,Activity,Enterobacter cloacae [18],62.9%
same,Activity,Enterobacter cloacae [19],2%
same,Activity,Streptococcus pneumoniae [20],98.5%
same,MIC50,Streptococcus viridans [21],1 µg/mL
same,MIC90,Streptococcus viridans [21],1 µg/mL
same,MIC50,Streptococcus pneumoniae [22],0.5 µg/mL
same,MIC90,Streptococcus pneumoniae [22],1 µg/mL
same,Activity,Escherichia coli [23],86.4%
same,Activity,Enterobacteriaceae [24],51.4%
same,MIC,Moraxella catarrhalis [25],≤ 0.03 µg/mL
same,MIC50,Moraxella catarrhalis [25],≤ 0.03 µg/mL
same,MIC90,Moraxella catarrhalis [25],≤ 0.03 µg/mL
same,Activity,Escherichia coli [26],14.3%
same,Activity,Providencia sp. [27],25.9%
same,Activity,Morganella morganii [28],20.6%
same,Activity,Staphylococcus aureus [29],83.9%
same,Activity,Moraxella catarrhalis [30],100%
same,MIC50,Streptococcus pyogenes,0.5 µg/mL
same,MIC90,Streptococcus pyogenes,1 µg/mL
same,MIC50,Streptococcus agalactiae,1 µg/mL
same,MIC90,Streptococcus agalactiae,1 µg/mL
same,Activity,Citrobacter freundii [31],0%
same,Activity,Staphylococcus aureus [32],73.9%
same,Activity,Staphylococcus aureus [33],73.2%
same,Activity,Escherichia coli [34],13.6%
same,Activity,Acinetobacter [35],36.2%
same,Activity,Escherichia coli [36],85.7%
same,Activity,Morganella morganii [37],76.5%
same,MIC,Enterococcus faecium,> 16 µg/mL
same,MIC50,Enterococcus faecium,> 16 µg/mL
same,MIC90,Enterococcus faecium,> 16 µg/mL
same,Activity,Citrobacter freundii [38],98%
